# Laboratory results published in patent US20130178469A1, “NOVEL ANTIVIRAL AGENTS” (SHANGHAI INSTITUTE OF ORGANIC CHEMISTRY (SIOC), priority 2010, published 2013).
# pEC50: −log10 of the molar value. Where two headings read alike, the source gives them in different places.
# What was measured:
# [1] = system: HIV; experiment: Inhibition of HIV Replication (NL4-3), extracellular p24 in HuT-78 cells; assay type: cell-based
# Procedure: HuT-78 cells are seeded into 96 well microtitre plates at 50,000 cells per […] per well in RF-10 containing 2 μg/mL polybrene (RF-10/2). Compounds are prepared to 4× final concentration in RF-10/2, and […] added to cells. Virus (40 μL in RF-10/2 containing 1600 pfu) is added to each well or […] RF-10/2 for negative controls and for assaying compound cytotoxicity. After 24 hrs, an additional 90 μL of media or media containing 1× compound is added to each well. At 4 days post infection, 100 μL of media is removed from each well and replaced with 100 μl of fresh media with or without compound. Forty eight hours later supernatants are harvested and levels of extracellular p24 determined. Supernatants are diluted 1 in 10,000 and p24 levels assayed using the Vironostika p24 assay kit. EC50 is calculated as the concentration required to inhibit HIV p24 production to 50% that of no drug controls.
# In the tables below, this assay type is referred to as NL4-3.
# [2] = system: HIV-1; experiment: Luciferase Assay with single-round reporter virus (NLXLuc or HIV-Luc); assay type: cell-based
# Source text: Infectivity assays using reporter viruses derived from lentiviral vectors capable of a single round of infection were used to determine the activity (EC50) of compounds. The DNA used to generate viruses for infection was the full-length HIV-1 genome which had been envelope-deleted. In addition, a reporter gene (the firefly luciferase gene from Photinus pyralis) was cloned into the nefregion of the HIV backbone for ease of assay readout. […]. Culture supernatants containing VSV-G pseudotyped virions were harvested 64 h post transfection, clarified by centrifugation to remove cell debris, and frozen at −70° C. until use.
# 293FT cells were plated out at 12000 cells per well in CellView 96-well cell culture plates (Invitrogen) 16 h prior to compound addition. Compounds were preincubated with cells for 4 h at 37° C. prior to the addition of virus sufficient to generate approximately 10000 Luciferase light units (as measured by the Victor Wallace luminometer) upon assaying using the Bright-Glo™ reagent (Promega) according to the manufacturer's instructions at 48 h post infection.
# In the tables below, this assay is referred to as NLXLuc or HIV-Luc.
# [3] = Human immunodeficiency virus 1, NL43, HuT78
Compound,"pEC50 [1, 3]",other results
"O=C(NCc1ccc(Cl)c(Cl)c1)c1nc2c(N3CCOCC3)cc(N3CCOCC3)cn2c(=O)c1O [Example 22, N-(3,4-dichlorobenzyl)-3-hydroxy-7,9-dimorpholino-4-oxo-4H-pyrido[1,2-a]pyrimidine-2-carboxamide]",8.00 to 9.00,–
"CCOC(=O)NC1=CC(N2CCOCC2)=CN2C(=O)C(O)C(C(=O)NCc3ccc(F)cc3)=NC12 (stereo not drawn) [Example 23.4, ethyl 2-(4-fluorobenzylcarbamoyl)-3-hydroxy-7-morpholino-4-oxo-4,9a-dihydro-3H-pyrido[1,2-a]pyrimidin-9-yl carbamate]",–,pEC50 [1]: 8.00 to 9.00
"O=C(NCc1ccc(F)cc1)c1nc2c(N3CCCS3(=O)=O)cc(N3CCOCC3)cn2c(=O)c1O [Example 24.4, N-(4-fluorobenzyl)-9-(1,3-propanesultam)-3-hydroxy-7-morpholino-4-oxo-4H-pyrido[1,2-a]pyrimidine-2-carboxamide]",> 9.00,pEC50 ([2]; Human immunodeficiency virus 1): 7.70 to 8.00
"O=C(NCc1ccc(Cl)c(Cl)c1)c1nc2c(N3CCCS3(=O)=O)cc(N3CCOCC3)cn2c(=O)c1O [Example 25, N-(3,4-dichlorobenzyl)-9-(1,3-propanesultam)-3-hydroxy-7-morpholino-4-oxo-4H-pyrido[1,2-a]pyrimidine-2-carboxamide]",> 9.00,"pEC50 ([2]; Human immunodeficiency virus 1, HEK-293T): > 9.00"
"CC(=O)Nc1cc(N2CCOCC2)cn2c(=O)c(O)c(C(=O)NCc3ccc(F)cc3)nc12 [Example 26.5, 9-acetamido-N-(4-fluorobenzyl)-3-hydroxy-7-morpholino-4-oxo-4H-pyrido[1,2-a]pyrimidine-2-carboxamide]",7.00 to 7.70,–
"CC(=O)N(C)c1cc(N2CCOCC2)cn2c(=O)c(O)c(C(=O)NCc3ccc(F)cc3)nc12 [Example 28.3, N-(4-fluorobenzyl)-3-hydroxy-9-(N-methylacetamido)-7-morpholino-4-oxo-4H-pyrido[1,2-a]pyrimidine-2-carboxamide]",8.00 to 9.00,pEC50 ([2]; Human immunodeficiency virus 1): 7.00 to 7.70
"Cc1ccc2nc(C(=O)NCc3ccc(F)cc3)c(O)c(=O)n2c1 [drawing 183, reference compound]",6.00 to 7.00,–
"Cc1ccc2nc(C(=O)NCc3ccc(Cl)c(Cl)c3)c(O)c(=O)n2c1 [drawing 189, reference compound]",6.00 to 7.00,–
O=C(NCc1ccc(F)cc1)c1nc2ccc(Br)cn2c(=O)c1O [reference compound],6.00 to 7.00,–
